Assays:
[1] = log P by HPLC on reversed-phase column (C18), EEC directive 79/831 Annex V.A8; assay type: physicochemical; details: Table C; HPLC reversed-phase C18, 43° C.; data refer to the E isomer
Protocol: The log P values reported in the tables and Preparation Examples above were determined in accordance with EEC directive 79/831 Annex V.A8 by HPLC (High Performance Liquid Chromatography) using a reversed-phase column (C18). Temperature 43° C. The calibration is effected with unbranched alkan-2-ones (having 3 to 16 carbon atoms), for which the log P values are known.

Phaedon cochleariae = Phaedon cochleariae - spray test (PHAECO); assay type: in vivo; details: application rate 100 g/ha, Chinese cabbage leaf disks
Protocol: Phaedon cochleariae—Spray Test (PHAECO)
(§1) Solvent: 78.0 parts by weight of acetone • • 1.5 parts by weight of dimethylformamide
(§2) Emulsifier: 0.5 parts by weight of alkylaryl polyglycol ether
(§3) To produce a suitable active compound preparation, 1 part by weight of active compound is mixed with the stated amounts of solvent and emulsifier, and the concentrate is diluted with emulsifier-containing water to the desired concentration.
After the desired period of time, the efficacy in % is determined. 100% means that all the beetle larvae have been killed; 0% means that no beetle larvae have been killed.

Spodoptera frugiperda = Spodoptera frugiperda - spray test (SPODFR); assay type: in vivo; details: application rate 100 g/ha, maize leaf disks
Protocol: Spodoptera frugiperda—Spray Test (SPODFR)
as §1, §2, §3
Leaf disks of maize (Zea mays) are sprayed with an active compound preparation of the desired concentration and, after drying, populated with caterpillars of the armyworm (Spodoptera frugiperda).
After the desired period of time, the efficacy in % is determined. 100% means that all the caterpillars have been killed; 0% means that no caterpillars have been killed.

Myzus persicae = Myzus persicae - spray test (MYZUPE); assay type: in vivo; details: Chinese cabbage leaf disks
Protocol: Myzus persicae—Spray Test (MYZUPE)
Solvent: 78 parts by weight of acetone • • 1.5 parts by weight of dimethylformamide
as §2, §3
Disks of Chinese cabbage leaves (Brassica pekinensis) infested by all stages of the green peach aphid (Myzus persicae) are sprayed with an active compound preparation of the desired concentration.
After the desired period of time, the efficacy in % is determined. 100% means that all the aphids have been killed; 0% means that none of the aphids have been killed.

Row | Structure (SMILES) | log p [1] | efficacy (beetle larvae killed) (Phaedon cochleariae) [%] | efficacy (caterpillars killed) (Spodoptera frugiperda) [%] | efficacy (aphids killed) (Myzus persicae; application rate 100 g/ha) [%] | efficacy (aphids killed) (Myzus persicae; application rate 20 g/ha) [%]
1 | CCOc1cc(C(=O)Nc2c(C)cc(C=NOC)cc2C(=O)NC)n(-c2ncccc2Cl)n1 [C-10] | 2.48 | 100 | 100 | 100 | 
2 | CCOc1cc(C(=O)Nc2c(C)cc(C=NOC)cc2C(=O)NC(C)(C)C)n(-c2ncccc2Cl)n1 [C-11] | 3.42 | 100 | 100 | 100 | 
3 | CON=Cc1cc(C)c(NC(=O)c2cc(OCC(F)F)nn2-c2ncccc2Cl)c(C(=O)NC2CC2)c1 [C-17] | 2.91 | 100 | 100 | 90 | 
4 | CON=Cc1cc(C)c(NC(=O)c2cc(OCC(F)F)nn2-c2ncccc2Cl)c(C(=O)NC(C)(C)C)c1 [C-21] | 3.43 | 83 | 100 | 100 | 
5 | CNC(=O)c1cc(C=NOC)cc(C)c1NC(=O)c1cc(OC)nn1-c1ncccc1Cl [C-22] | 2.15 | 100 | 100 | 100 | 
6 | CON=Cc1cc(C)c(NC(=O)c2cc(OC)nn2-c2ncccc2Cl)c(C(=O)NC2CC2)c1 [C-23] | 2.40 | 100 | 100 | 100 | 
7 | CON=Cc1cc(C)c(NC(=O)c2cc(OC)nn2-c2ncccc2Cl)c(C(=O)NC(C)C2CC2)c1 (centres unmarked) [C-25] | 3.02 | 100 | 100 | 100 | 
8 | CON=Cc1cc(C)c(NC(=O)c2cc(OC)nn2-c2ncccc2Cl)c(C(=O)NC(C)(C)C)c1 [C-26] | 3.06 | 100 | 100 | 100 | 
9 | CCOc1cc(C(=O)Nc2c(C)cc(C=NOC)cc2C(=O)NC(C)C2CC2)n(-c2ncccc2Cl)n1 (centres unmarked) [C-27] | 3.38 | 100 | 100 | 90 | 
10 | CON=Cc1cc(C)c(NC(=O)c2cc(C(F)F)nn2-c2ncccc2Cl)c(C(=O)NC(C)(C)C)c1 [C-35] | 3.34 | 100 | 100 | 90 | 
11 | CON=Cc1cc(C)c(NC(=O)c2cc(C(F)F)nn2-c2ncccc2Cl)c(C(=O)NC(C)C2CC2)c1 (centres unmarked) [C-36] | 3.29 | 100 | 100 | 90 | 
12 | CCNC(=O)c1cc(C=NOC)cc(C)c1NC(=O)c1cc(OC)nn1-c1ncccc1Cl [C-47] | 2.41 | 100 | 100 | 100 | 
13 | C#CCNC(=O)c1cc(C=NOC)cc(C)c1NC(=O)c1cc(OC)nn1-c1ncccc1Cl [C-48] | 2.40 | 100 | 100 | 100 | 
14 | CON=Cc1cc(C)c(NC(=O)c2cc(CF)nn2-c2ncccc2Cl)c(C(=O)NC(C)C)c1 [C-49] | 2.65 | 100 | 100 | 90 | 
15 | CCNC(=O)c1cc(C=NOC)cc(C)c1NC(=O)c1cc(CF)nn1-c1ncccc1Cl [C-53] | 2.39 | 100 | 100 | 90 | 
16 | COCCNC(=O)c1cc(C=NOC)cc(C)c1NC(=O)c1cc(CF)nn1-c1ncccc1Cl [C-56] | 2.27 | 100 | 100 |  | 90
17 | C#CCNC(=O)c1cc(C=NOC)cc(C)c1NC(=O)c1cc(CF)nn1-c1ncccc1Cl [C-57] | 2.38 | 100 | 100 | 90 | 

Reference: patent publication US9609868B2, “Alkoximino-substituted anthranilic acid diamides as pesticides” (BAYER CROPSCIENCE AKTIENGESELLSCHAFT, priority 2013, dated 2017)
